The values that follow are results of earlier work, collected in US12419890B2, “Administration of sumo-activating enzyme inhibitor and checkpoint inhibitors” (Takeda Pharmaceutical Company Limited, priority 2019, dated 2025).

Like-named read-outs stand apart in the source and are kept apart here.

The test system of one data set is metastatic CRC. The following applies: stated jointly for both drugs; cited from earlier work.
Data set [1] deals with recurrent or metastatic cervical cancer. The following applies: cited from earlier work.
A further data set concerns MSI-H CRC. The following applies: MSI-H CRC patients that progressed to fluoropyrimidine, oxaliplatin, and irinotecan containing regimens; cited from earlier work.
The subject of the next data set is advanced NSCLC. As to conditions: cited from earlier work.
The subject of data set [2] is advanced cervical cancer, PD-L1 CPS>=1. As to conditions: cited from earlier work.
The mark [3] stands for this setting: 200 mg IV every three weeks, 77 patients.

Regarding `CNC(=O)c1cc(Oc2ccc(NC(=O)Nc3ccc(Cl)c(C(F)(F)F)c3)c(F)c2)ccn1` [regorafenib], in the data set on metastatic CRC, the “median OS” value was 7 months and the “median PFS” value is listed as 2 months.

As to bevacizumab, the “HR for PFS” value in data set [1] (bevacizumab added to standard first line chemotherapy vs chemotherapy alone, 95% CI 0.54-0.82) is 0.67. Moreover, in data set [1] (bevacizumab added to standard first line chemotherapy vs chemotherapy alone, 95% CI 0.54-0.95), the “HR for OS” value was 0.71. Further, in data set [1] (bevacizumab added to standard first line chemotherapy, vs 5.9 months chemotherapy alone), the “median PFS” value is 8.2 months. Moreover, the “median OS” value in data set [1] (bevacizumab added to standard first line chemotherapy, vs 13.3 months chemotherapy alone) was 17.0 months.

For nivolumab, in the data set on MSI-H CRC, the ORR is listed as 28% and the “responders whose DOR lasted more than six months” value is listed as 67%.

Regarding pembrolizumab, the “5-year OS rate” value is 12.6% in the data set with advanced NSCLC (previously treated patients, PD-L1 expression 1 to 49%); 3.5% in the data set on advanced NSCLC (previously treated patients, PD-L1 expression <1%); 25% in the data set with advanced NSCLC (previously treated patients, PD-L1 expression >=50%); 29.6% in the data set with advanced NSCLC (treatment-naive patients with PD-L1 expression >=50%); 15.7% in the data set with advanced NSCLC (treatment-naive patients, PD-L1 <50%). Moreover, the “complete responses (CRs)” value in data set [2] (setting [3]) was 2.6%. In data set [2] (setting [3]), the “partial responses (PRs)” value is 11.7%. Also, in data set [2] (200 mg IV every three weeks, 77 patients, median follow-up 11.7 months, 95% CI 7.4, 24.1), the “overall response rate (ORR)” value is on record as 14.3%. Further, in data set [2] (11 patients with a response by independent review), the “estimated median duration of response (DOR)” value is recorded as “not reached”. Further, the “responders with a DOR of greater than or equal to 6 months” value in data set [2] (11 patients with a response) is 91%. The ORR in the data set on MSI-H CRC is recorded as 36%. Also, the “responders whose DOR lasted more than six months” value in the data set on MSI-H CRC is listed as 78%.

For trifluridine-tipiracil, in the data set with metastatic CRC, the “median OS” value was 7 months and the “median PFS” value is given as 2 months.
